The subject of assay [1] is THP1 differentiated macrophages. Description: LPS-induced cytokine release in PMA differentiated THP1 macrophages (ELISA). The assay is classed as cell-based, human. The protocol:
In the following the procedure will be set forth describing how the released amount of several human cytokines after ligand induced secretion from human cells (Blood, WBC, PBMC, purified primary lymphocytes, cell lines, . . . ) was measured.
The technique used is a Sandwich ELISA, which allows measuring the amount of antigen between two layers of antibodies (i.e. capture and detection antibody). The antigen to be measured must contain at least two antigenic sites capable of binding to antibody, since at least two antibodies act in the sandwich. Either monoclonal or polyclonal antibodies can be used as the capture and detection antibodies in Sandwich ELISA systems. Monoclonal antibodies recognize a single epitope that allows fine detection and quantification of small differences in antigen. A polyclonal is often used as the capture antibody to pull down as much of the antigen as possible.
The method may be used to determine the effect of the JNK inhibitors of the present invention in vitro/cell culture. At non toxic doses, compound efficacy is indicated by the decrease of the cytokine levels (the variation of optical density (absorbance at 450 nm)) as compared to non-treated samples and is monitored by ELISA. Results are express in ng/ml.
In the following the procedure will be set forth describing how cytokine production from human PMA differentiated THP1 cells challenged by LPS for 6 h was induced in order to test the ability of JNK inhibitors of the present invention, in particular of a JNK inhibitor with SEQ ID NO: 172, to reduce stimulation-induced cytokine release. THP1 cells were stimulated ex-vivo by different ligands for the readout of cytokine release. At non toxic doses, JNK inhibitor efficacy is indicated by the decrease of the cytokine levels as compared to non-treated samples and is monitored by ELISA. The toxicity of the compound are evaluated by the reduction of a tretazolium salt (MTS) to formazan, giving a purple colour.
The cells were counted. […]

Assay [2] deals with T1, hJNK1 (Homo sapiens, UniProt P45983).
T1 construct: His; purchased Upstate 14-327
T1 sequence (P45983 whole entry, looked up): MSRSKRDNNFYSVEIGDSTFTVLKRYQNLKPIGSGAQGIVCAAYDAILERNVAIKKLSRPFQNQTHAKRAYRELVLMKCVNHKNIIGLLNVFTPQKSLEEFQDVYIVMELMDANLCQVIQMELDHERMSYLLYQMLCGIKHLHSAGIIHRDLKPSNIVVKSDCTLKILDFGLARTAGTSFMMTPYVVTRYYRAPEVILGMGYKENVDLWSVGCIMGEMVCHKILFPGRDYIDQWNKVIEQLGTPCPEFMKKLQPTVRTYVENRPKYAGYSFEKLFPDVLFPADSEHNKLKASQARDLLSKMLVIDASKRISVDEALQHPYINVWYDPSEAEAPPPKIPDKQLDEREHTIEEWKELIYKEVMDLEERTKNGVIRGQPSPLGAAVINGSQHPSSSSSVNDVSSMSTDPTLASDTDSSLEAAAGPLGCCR
Put plainly: hJNK1 | IC50. The following applies: read-out: hJNK1 | IC50.

The target in assay [3] is hJNK3 (Homo sapiens, UniProt P53779). Put plainly: hJNK3 | IC50. Conditions: read-out: hJNK3 | IC50.
Chain of hJNK3 (P53779 whole entry, looked up): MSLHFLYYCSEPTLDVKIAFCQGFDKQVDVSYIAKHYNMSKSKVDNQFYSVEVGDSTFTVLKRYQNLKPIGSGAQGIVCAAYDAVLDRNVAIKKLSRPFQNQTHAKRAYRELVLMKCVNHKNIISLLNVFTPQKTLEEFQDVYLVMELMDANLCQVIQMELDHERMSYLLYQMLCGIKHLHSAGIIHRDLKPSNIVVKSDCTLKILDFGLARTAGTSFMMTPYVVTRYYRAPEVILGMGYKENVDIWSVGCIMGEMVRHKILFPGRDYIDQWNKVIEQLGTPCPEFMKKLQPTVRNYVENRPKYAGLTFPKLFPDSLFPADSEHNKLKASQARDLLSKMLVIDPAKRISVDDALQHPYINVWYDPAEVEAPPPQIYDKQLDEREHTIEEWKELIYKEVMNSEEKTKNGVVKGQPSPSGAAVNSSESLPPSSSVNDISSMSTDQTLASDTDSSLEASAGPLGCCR

“Also recorded” adds a separate entry of the source. Square brackets hold non-standard residues; d marks the D form. Peptide text beside a SMILES is read from it.

Regarding `CC(C)C[C@H](NC(=O)[C@H](CC(N)=O)NC(=O)[C@H](CC(C)C)NC(=O)[C@@H](NC(=O)[C@@H](C)NC(=O)[C@@H]1CCCN1C(=O)[C@H](CCCNC(=N)N)NC(=O)[C@@H](CCCCN)NC(=O)[C@@H]1CCCN1C(=O)[C@H](CCCNC(=N)N)NC(=O)[C@@H](CCCNC(=N)N)NC(=O)[C@H](CCCNC(=N)N)NC(=O)[C@H](CCCNC(=N)N)NC(=O)[C@H](CCC(N)=O)NC(=O)[C@@H](CCCNC(=N)N)NC(=O)[C@H](CCCNC(=N)N)NC(=O)[C@H](CCCCN)NC(=O)[C@H](CCCCN)NC(=O)[C@H](N)CCCNC(=N)N)[C@@H](C)O)C(=O)N[C@H](Cc1ccccc1)C(N)=O` [SEQ ID NO: 172, rKKRrQRRrRPkRPaTLNLf] (H-[dR]KKR[dR]QRR[dR]RP[dK]RP[dA]TLNL[dF]-NH2; N-terminus assumed), the “LPS-induced IL6 release” value in assay [1] (LPS added for 6 h) is “higher potency than D-TAT-IB1 (SEQ ID NO: 197), dTAT (SEQ ID NO: 45) and SP 600125; also recorded: higher potency than D-TAT-IB1 (SEQ ID NO: 197) and L-TAT-IB1 (SEQ ID NO: 196)”. Moreover, the “LPS-induced TNFα release” value in assay [1] (PMA/THP1 differentiated macrophages, LPS) is “higher potency than D-TAT-IB1 (SEQ ID NO: 197), dTAT (SEQ ID NO: 45) and SP 600125; also recorded: higher potency than D-TAT-IB1 (SEQ ID NO: 197) and L-TAT-IB1 (SEQ ID NO: 196)”. Moreover, the “LPS-induced cytokine and chemokine release” value in assay [1] (THP1-PMA-differentiated macrophages, TNF, IL 6, MCP1, 6 h LPS) is “blocks LPS-induced cytokine and chemokine release”. The IC50 (commonly the concentration at which inhibition is half-maximal) amounted to 722 nM in assay [2] and 102 nM in assay [3].
